Patent US20080096894A1, “Anti-Bacterial Compounds” (ASTON UNIVERSITY, priority 2005, published 2008)
Converted amounts (≈) assume the structure as drawn. Read-outs that look alike come from different tables or passages of the source.

Assays:
S. aureus = assay: MIC, agar dilution, multipoint inoculator; format: cell-based, Staphylococcus aureus; details: upper value of MIC reading
Description: (§1) This activity was measured using a multipoint inoculator method as follows. The MIC for each compound was measured using an agar dilution method (Onda, H., et al., Int. J. Antimicrob. Agents. 18, 263 (2001)) (Mueller Hinton agar) by means of a multipoint inoculator delivering 10^4 colony forming units per spot.

S. epidemisis = assay: MIC, agar dilution, multipoint inoculator; format: cell-based, Staphylococcus epidermidis; details: upper value of MIC reading
Description: as §1

MRSA = assay: MIC, agar dilution, multipoint inoculator; format: cell-based, methicillin-resistant Staphylococcus aureus
Description: as §1
‘Staph’ refers to the reference strain of S. aureus (NCTC 6571). A tick in the MRSA column refers to a positive zone against MRSA strain 96-7474, and the MIC range (in μg/ml) which follows is that found against a panel of ten MRSA strains. Where MIC values are given for MRSA, these are stated as a range of values, as testing was carried out on a panel of clinical isolates.

E. faecium = assay: MIC, agar dilution, multipoint inoculator; format: cell-based, Enterococcus faecium; details: upper value of MIC reading
Description: as §1

S. haemolyticus = assay: MIC, agar dilution, multipoint inoculator; format: cell-based; details: S. haemolyticus Isolate 1, upper value of MIC reading
Description: as §1

S. aboni = assay: MIC, agar dilution, multipoint inoculator; format: cell-based; details: S. aboni NCTC 6017; upper value of MIC reading
Description: as §1

E. faecalis = assay: MIC, agar dilution, multipoint inoculator; format: cell-based; details: upper value of MIC reading
Description: as §1

S. maltophilia = assay: MIC, agar dilution, multipoint inoculator; format: cell-based; details: S. maltophilia NCTC 10257; upper value of MIC reading
Description: as §1

B. bronchiseptica = assay: MIC, agar dilution, multipoint inoculator; format: cell-based; details: B. bronchiseptica NCTC 8344; upper value of MIC reading
Description: as §1

[1] = tested on: human mononuclear leucocytes (MNL, white blood cells); assay: direct leucocyte toxicity, tryptan blue exclusion, 18 hours; format: cell-based
Description: The in vitro assay used human mononuclear leucocytes (MNL, white blood cells) which were incubated with the test compound for 18 hours and cell death determined by tryptan blue exclusion (tryptan blue is a dye, which stains dead cells, whilst living cells extrude it).
The toxicity of 4PYcq and the aldehyde cq and pyridine-4-carboxamidrazone precursors were assessed using the same in vitro assay with human mononuclear leucocytes as that described above. The toxicity of related compounds, 2-hydroxybenzylidene-pyridine-2-carboxamidrazone 4PYbw and benzylidenepyridine-2-carboxamidrazone 4PYaa were also examined.

[2] = MRSA Isolate 1, upper value of MIC reading, in µg/mL
[3] = MRSA Isolate 3, upper value of MIC reading, in µg/mL
[4] = MRSA Isolate 4, upper value of MIC reading, in µg/mL
[5] = MRSA Isolate 2, upper value of MIC reading, in µg/mL
[6] = MRSA Isolate 5, upper value of MIC reading, in µg/mL
[7] = MRSA Isolate 6, upper value of MIC reading, in µg/mL
[8] = MRSA Isolate 7, upper value of MIC reading, in µg/mL
[9] = MRSA Isolate 8, upper value of MIC reading, in µg/mL
[10] = MRSA Isolate 9, upper value of MIC reading, in µg/mL
[11] = MRSA Isolate 10, upper value of MIC reading, in µg/mL
[12] = panel of ten MRSA strains (clinical isolates)

N/C(=N\N=C\c1c2ccccc2cc2ccccc12)c1ccncc1 [Compound 4PYam]
MIC (S. aureus; Staphylococcus aureus, 18 h, S. aureus Cowan 1, read-out: MIC): 32 µg/mL (≈ 98.6 µM) | MIC (S. aureus; Staphylococcus aureus, NCTC6571, 18 h, S. aureus NCTC 6571, read-out: MIC): 32 µg/mL (≈ 98.6 µM) | MIC (S. aureus; Staphylococcus aureus, NCTC10788, 18 h, S. aureus NCTC 10788, read-out: MIC): 64 µg/mL (≈ 197 µM) | MIC (S. epidemisis; Staphylococcus epidermidis, 18 h, S. epidemisis Isolate 1, read-out: MIC): 128 µg/mL (≈ 395 µM) | MIC (S. epidemisis; Staphylococcus epidermidis, NCTC11047, 18 h, S. epidemisis NCTC 11047, read-out: MIC): 256 µg/mL (≈ 789 µM) | MIC (MRSA; Staphylococcus aureus, 18 h, MRSA Isolate 1, upper value of MIC reading, read-out: MIC): 32 µg/mL (≈ 98.6 µM) | MIC (MRSA; Staphylococcus aureus, 18 h, MRSA Isolate 2, upper value of MIC reading, read-out: MIC): 64 µg/mL (≈ 197 µM) | MIC (MRSA; Staphylococcus aureus, 18 h, MRSA Isolate 3, upper value of MIC reading, read-out: MIC): 64 µg/mL (≈ 197 µM) | MIC (MRSA; Staphylococcus aureus, 18 h, MRSA Isolate 4, upper value of MIC reading, read-out: MIC): 32 µg/mL (≈ 98.6 µM) | MIC (MRSA; Staphylococcus aureus, 18 h, MRSA Isolate 5, upper value of MIC reading, read-out: MIC): 32 µg/mL (≈ 98.6 µM) | MIC (MRSA; Staphylococcus aureus, 18 h, MRSA Isolate 6, upper value of MIC reading, read-out: MIC): 32 µg/mL (≈ 98.6 µM) | MIC (MRSA; Staphylococcus aureus, 18 h, MRSA Isolate 7, upper value of MIC reading, read-out: MIC): 64 µg/mL (≈ 197 µM) | MIC (MRSA; Staphylococcus aureus, 18 h, MRSA Isolate 8, upper value of MIC reading, read-out: MIC): 64 µg/mL (≈ 197 µM) | MIC (MRSA; Staphylococcus aureus, 18 h, MRSA Isolate 9, upper value of MIC reading, read-out: MIC): 32 µg/mL (≈ 98.6 µM) | MIC (MRSA; Staphylococcus aureus, 18 h, MRSA Isolate 10, upper value of MIC reading, read-out: MIC): 32 µg/mL (≈ 98.6 µM) | MIC (MRSA; Staphylococcus aureus, MRSA, 18 h, panel of ten MRSA strains (clinical isolates), read-out: MRSA MIC range): 16 to 64 µg/mL (≈ 49.3 to 197 µM) | MIC (E. faecium; Enterococcus faecium, NCTC7171, 18 h, E. faecium NCTC 7171, read-out: MIC): 256 µg/mL (≈ 789 µM) | MIC (S. haemolyticus; Staphylococcus haemolyticus, 18 h, read-out: MIC): 256 µg/mL (≈ 789 µM) | MIC (S. aboni): 32 µg/mL (≈ 98.6 µM) | MIC (E. faecalis; Enterococcus faecalis, 18 h, E. faecalis Isolate 1, read-out: MIC): 256 µg/mL (≈ 789 µM) | MIC (E. faecalis; Enterococcus faecalis, 18 h, E. faecalis Isolate 2, read-out: MIC): 256 µg/mL (≈ 789 µM) | MIC (E. faecalis; Enterococcus faecalis, 18 h, E. faecalis Isolate 4, read-out: MIC): 256 µg/mL (≈ 789 µM) | MIC (E. faecalis; Enterococcus faecalis, 18 h, E. faecalis Isolate 5, read-out: MIC): 256 µg/mL (≈ 789 µM)

NC(=NN=Cc1c(O)ccc2ccccc12)c1ccncc1 [Compound 4PYdb]
MIC (S. aureus; S. aureus Cowan 1): 128 µg/mL (≈ 441 µM) | MIC (S. aureus; S. aureus NCTC 6571): > 256 µg/mL | MIC (S. epidemisis; S. epidemisis Isolate 1): 128 µg/mL (≈ 441 µM) | MIC (S. epidemisis; S. epidemisis NCTC 11047): 128 µg/mL (≈ 441 µM) | MIC (MRSA; [2]): 128 | MIC (MRSA; [3]): 256 | MIC (MRSA; [4]): 256 | MIC (S. haemolyticus): 128 µg/mL (≈ 441 µM) | MIC (S. maltophilia): 128 µg/mL (≈ 441 µM) | MIC (E. faecalis; E. faecalis Isolate 2): 256 µg/mL (≈ 882 µM) | MIC (E. faecalis; E. faecalis Isolate 3): 256 µg/mL (≈ 882 µM)

NC(=NN=Cc1cc(O)c(O)cc1O)c1ccc2ccccc2n1 [QNcc]
MIC (S. aureus; S. aureus Cowan 1): 256 µg/mL (≈ 794 µM) | MIC (S. aureus; S. aureus NCTC 6571): 256 µg/mL (≈ 794 µM) | MIC (S. aureus; S. aureus NCTC 10788): 256 µg/mL (≈ 794 µM) | MIC (MRSA; [2]): 256 | MIC (B. bronchiseptica): 256 µg/mL (≈ 794 µM) | MIC (E. faecalis; E. faecalis Isolate 2): 256 µg/mL (≈ 794 µM) | MIC (E. faecalis; E. faecalis Isolate 3): 256 µg/mL (≈ 794 µM)

CC(C)(C)c1ccc(C=O)cc1 [ae]
direct MNL toxicity (in words) [1]: most toxic | % Leucocyte Death ([1]; human, 18 h, 1 mM): 24.1 ± 9.6%

NC(=NN=Cc1cc([N+](=O)[O-])ccc1O)c1cccnc1 [Compound 3PYcj]
MIC (S. aureus; S. aureus Cowan 1): 16 µg/mL (≈ 56.1 µM) | MIC (S. aureus; S. aureus NCTC 6571): 8 µg/mL (≈ 28 µM) | MIC (S. aureus; S. aureus NCTC 10788): 8 µg/mL (≈ 28 µM) | MIC (S. epidemisis; S. epidemisis Isolate 1): 128 µg/mL (≈ 449 µM) | MIC (S. epidemisis; S. epidemisis NCTC 11047): 64 µg/mL (≈ 224 µM) | MIC (MRSA; [2]): 4 | MIC (MRSA; [5]): 4 | MIC (MRSA; [3]): 4 | MIC (MRSA; [4]): 4 | MIC (MRSA; [6]): 4 | MIC (MRSA; [7]): 8 | MIC (MRSA; [8]): 8 | MIC (MRSA; [9]): 8 | MIC (MRSA; [10]): 8 | MIC (MRSA; [11]): 8 | MRSA MIC range (MRSA; [12]): 2 to 8 µg/mL | MIC (S. aboni): 256 µg/mL (≈ 897 µM) | MIC (E. faecalis; E. faecalis Isolate 1): 128 µg/mL (≈ 449 µM) | MIC (E. faecalis; E. faecalis Isolate 2): 128 µg/mL (≈ 449 µM) | MIC (E. faecalis; E. faecalis NCTC 5957): 256 µg/mL (≈ 897 µM)

O=Cc1cccc2ccccc12 [al]
% Leucocyte Death ([1]; 1.0 mM, 18 hours): 9.2 ± 4.7%

NC(=NN=Cc1cc(Br)cc([N+](=O)[O-])c1O)c1cccnc1 [Compound 3PYcl]
MIC (S. aureus; S. aureus Cowan 1): 64 µg/mL (≈ 176 µM) | MIC (S. aureus; S. aureus NCTC 6571): 32 µg/mL (≈ 87.9 µM) | MIC (S. aureus; S. aureus NCTC 10788): 32 µg/mL (≈ 87.9 µM) | MIC (S. epidemisis; S. epidemisis Isolate 1): 256 µg/mL (≈ 703 µM) | MIC (S. epidemisis; S. epidemisis NCTC 11047): 256 µg/mL (≈ 703 µM) | MIC (MRSA; [2]): 64 | MIC (MRSA; [5]): 64 | MIC (MRSA; [3]): 64 | MIC (MRSA; [4]): 32 | MIC (MRSA; [6]): 32 | MIC (MRSA; [7]): 64 | MIC (MRSA; [8]): 64 | MIC (MRSA; [9]): 64 | MIC (MRSA; [10]): 64 | MIC (MRSA; [11]): 64 | MRSA MIC range (MRSA; [12]): 16 to 64 µg/mL | MIC (E. faecium; E. faecium ACTCC 10541): 128 µg/mL (≈ 351 µM) | MIC (E. faecium; E. faecium NCTC 7171): 256 µg/mL (≈ 703 µM) | MIC (S. haemolyticus): 128 µg/mL (≈ 351 µM) | MIC (S. aboni): 256 µg/mL (≈ 703 µM) | MIC (E. faecalis; E. faecalis EBH1): 256 µg/mL (≈ 703 µM) | MIC (E. faecalis; E. faecalis Isolate 1): 128 µg/mL (≈ 351 µM) | MIC (E. faecalis; E. faecalis Isolate 2): 128 µg/mL (≈ 351 µM) | MIC (E. faecalis; E. faecalis Isolate 4): 256 µg/mL (≈ 703 µM) | MIC (E. faecalis; E. faecalis Isolate 5): 128 µg/mL (≈ 351 µM) | MIC (E. faecalis; E. faecalis NCTC 5957): 128 µg/mL (≈ 351 µM)

N=C(NN=Cc1ccccc1O)c1ccccn1 [Compound 4PYbw, 2-hydroxybenzylidene-pyridine-2-carboxamidrazone]
direct MNL toxicity (in words) [1]: only mildly toxic in comparison

NC(=NN=Cc1ccc(O)c(O)c1O)c1ccccn1 [Compound 2PYcb]
MIC (S. aureus; S. aureus Cowan 1): 256 µg/mL (≈ 940 µM) | MIC (S. epidemisis; S. epidemisis Isolate 1): 256 µg/mL (≈ 940 µM) | MIC (MRSA; [6]): 256 | MIC (E. faecium; E. faecium NCTC 7171): 256 µg/mL (≈ 940 µM) | MIC (B. bronchiseptica): 256 µg/mL (≈ 940 µM)
